Measurements published in patent US8067408B2, “Dual pharmacophores—PDE4-muscarinic antagonistics” (priority 2008, dated 2011).

Tested on: M1, M2 (w/Gqi5) and M3 ACh receptors stably expressed in CHO cells
Assay: Calcium mobilization (FLIPR) IC50 determination for antagonists of ACh induced muscarinic receptor activation
Type: cell-based, human
Conditions: EC80 concentration of ACh, active if IC50 of between 33 uM and 10 nM or less, receptor subtype (M1/M2/M3) not specified
Description: Calcium Mobilization Studies (FLIPR)
Studies to determine the effectiveness of antagonists to cause blockade of functional intracellular calcium fluxes following agonist (ACh) treatment of cloned human receptors.
This system is used for characterizations of antagonist-receptor interactions using four distinct variations of the FLIPR methodology: (a) potency: IC50 determination, (b) potency: pA2 determination, (c) reversibility of antagonist-receptor interaction, or (d) confirmation of no functional agonist activity. • Cell Source The human M1-M3 receptors are cloned and stably expressed in Chinese Hamster Ovary (CHO) cells. The M2 receptors are co-expressed with the chimeric G protein, Gqi5. • Cell lines: M1 stable: Biocat #1044; M2+Gqi5 stable: Biocat #95663; M3 stable: Biocat #1049 • Method of Culture: CHO-M1, CHO-Gqi5-M2 and CHO-M3 cells are cultured to confluence at 37° C. in a humidified incubator with 5% CO2/95% air. CHO-M1 and CHO-M3 are cultured in Alpha MEM with nucleosides and L-glutamine and 10% fetal calf serum. […] The emitted fluorescence from all 96 wells is measured simultaneously using a cooled CCD camera. Data points are collected every second. Maximal change in emission from each well after simultaneous addition of agonist or compound to each of the 96 wells is then exported to an excel spreadsheet. […] Experimental Protocols: • Cell plating: A microtiter plate based calcium mobilization FLIPR (Fluorometric Imaging Plate Reader, Molecular Devices, Sunnyvale Calif., [Schroeder KS, Neagle, BD. FLIPR: a new instrument for accurate, high throughput optical screening. J. Biomol. Screen. 1996; 1:75.]) assay is used for the functional characterization of compounds against M1, M2 (w/Gqi5) and M3 ACh receptors stably expressed in CHO cells. […] The basal emission fluorescence is measured, then the cellular response to an EC80 concentration of ACh (3.3 nM against M1, 10 nM against M2 and 1.0 nM against M3) prepared in KRH assay buffer with 0.1% BSA (no gelatin), is monitored in FLIPR for 90 seconds and then 50 μL of 100 μM ATP (assay concentration of 20 μM) is added to check cell viability (H. M. Sarau et al, 1999. Mol. Pharmacol. 56, 657-663). […]

| Structure (SMILES) | IC50: compound pretreatment concentration which inhibits 50% of the ACh induced response |
| --- | --- |
| CCc1nc2c(cnn2CC)c(NC2CCOCC2)c1CNCc1cccc(C(=O)NCc2ccc(F)c(-c3cccc(CN4CCNCC4)c3)c2)c1 [Example 228, 3-[({[1,6-Diethyl-4-(tetrahydro-2H-pyran-4-ylamino)-1H-pyrazolo[3,4-b]pyridin-5-yl]methyl}amino)methyl]-N-{[6-fluoro-3′-(1-piperazinylmethyl)-3-biphenylyl]methyl}benzamide] | most active |
| CCc1nc2c(cnn2CC)c(NC2CCOCC2)c1CNC(=O)c1cccc(C(=O)NCc2cc(-c3cccc(CN4CCN(C)CC4)c3)ccc2OC)c1 [Example 271, N-{[1,6-Diethyl-4-(tetrahydro-2H-pyran-4-ylamino)-1H-pyrazolo[3,4-b]pyridin-5-yl]methyl}-N′-({4-(methyloxy)-3′-[(4-methyl-1-piperazinyl)methyl]-3-biphenylyl}methyl)-1,3-benzenedicarboxamide] | most active |
| CCc1nc2c(cnn2CC)c(NC2CCOCC2)c1CNC(=O)c1cccc(C(=O)NCc2ccc(F)c(-c3cccc(CNC4CCCC4)c3)c2)c1 [Example 307, N-({3′-[(Cyclopentylamino)methyl]-6-fluoro-3-biphenylyl}methyl)-N′-{[1,6-diethyl-4-(tetrahydro-2H-pyran-4-ylamino)-1H-pyrazolo[3,4-b]pyridin-5-yl]methyl}-1,3-benzenedicarboxamide] | most active |
| CCc1nc2c(cnn2CC)c(NC2CCOCC2)c1CNC(=O)c1cccc(C(=O)NCc2ccc(F)c(-c3cccc(CNc4ccncc4)c3)c2)c1 [Example 311, N-{[1,6-Diethyl-4-(tetrahydro-2H-pyran-4-ylamino)-1H-pyrazolo[3,4-b]pyridin-5-yl]methyl}-N′-({6-fluoro-3′-[(4-pyridinylamino)methyl]-3-biphenylyl}methyl)-1,3-benzenedicarboxamide] | most active |

Tested on: not given
Assay: not given
Conditions: not given

| Structure (SMILES) | melting point [°C] |
| --- | --- |
| CCc1nc2c(cnn2CC)c(NC2CCOCC2)c1CNC(=O)c1cc(C)cc(C(=O)NCc2ccc(OC)c(-c3cccc(CN4CCN[C@@H](C)C4)c3)c2)c1 [Example 423, N-{[1,6-Diethyl-4-(tetrahydro-2H-pyran-4-ylamino)-1H-pyrazolo[3,4-b]pyridin-5-yl]methyl}-5-methyl-N′-[(6-(methyloxy)-3′-{[(3S)-3-methyl-1-piperazinyl]methyl}-3-biphenylyl)methyl]-1,3-benzenedicarboxamide] | 121 to 123 |
| CCc1nc2c(cnn2CC)c(NC2CCOCC2)c1CNC(=O)c1cc(C)cc(C(=O)NCc2cccc(-c3cccc(CC4CCN(C)CC4)c3)c2)c1 [Example 425, N-{[1,6-Diethyl-4-(tetrahydro-2H-pyran-4-ylamino)-1H-pyrazolo[3,4-b]pyridin-5-yl]methyl}-5-methyl-N′-({3′-[(1-methyl-4-piperidinyl)methyl]-3-biphenylyl}methyl)-1,3-benzenedicarboxamide] | 119 to 121 |
| CCc1nc2c(cnn2CC)c(NC2CCOCC2)c1CNC(=O)c1cc(C)cc(C(=O)NCc2cccc(-c3cccc(CC4CCNCC4)c3)c2)c1 [Example 426, N-{[1,6-Diethyl-4-(tetrahydro-2H-pyran-4-ylamino)-1H-pyrazolo[3,4-b]pyridin-5-yl]methyl}-5-methyl-N′-{[3′-(4-piperidinylmethyl)-3-biphenylyl]methyl}-1,3-benzenedicarboxamide] | 130 to 132 |
| CCc1nc2c(cnn2CC)c(NC2CCOCC2)c1CNC(=O)c1cc(C)cc(C(=O)NCc2ccc(OC)c(-c3cccc(CC4CCN(C)CC4)c3)c2)c1 [Example 427, N-{[1,6-Diethyl-4-(tetrahydro-2H-pyran-4-ylamino)-1H-pyrazolo[3,4-b]pyridin-5-yl]methyl}-5-methyl-N′-({6-(methyloxy)-3′-[(1-methyl-4-piperidinyl)methyl]-3-biphenylyl}methyl)-1,3-benzenedicarboxamide] | 115 to 117 |
| CCc1nc2c(cnn2CC)c(NC2CCOCC2)c1CNC(=O)c1cccc(C(=O)NCc2cc(Cl)cc(-c3cccc(CN4CCCN(C)CC4)c3)c2)c1 [Example 428, N-({5-Chloro-3′-[(4-methylhexahydro-1H-1,4-diazepin-1-yl)methyl]-3-biphenylyl}methyl)-N′-{[1,6-diethyl-4-(tetrahydro-2H-pyran-4-ylamino)-1H-pyrazolo[3,4-b]pyridin-5-yl]methyl}-1,3-benzenedicarboxamide] | 111 to 113 |

Results, then the compound that gave them:

| melting point [°C] | Structure (SMILES) |
| --- | --- |
| 119 to 121 | CCc1nc2c(cnn2CC)c(NC2CCOCC2)c1CNC(=O)c1cccc(C(=O)NCc2cc(Cl)cc(-c3cccc(CN4CCN[C@@H](C)C4)c3)c2)c1 [Example 224, N-[(5-Chloro-3′-{[(3S)-3-methyl-1-piperazinyl]methyl}-3-biphenylyl)methyl]-N′-{[1,6-diethyl-4-(tetrahydro-2H-pyran-4-ylamino)-1H-pyrazolo[3,4-b]pyridin-5-yl]methyl}-1,3-benzenedicarboxamide] |
| 116 to 118 | CCc1nc2c(cnn2CC)c(NC2CCOCC2)c1CNC(=O)c1cccc(C(=O)NCc2cc(Cl)cc(-c3cccc(CN4CCN(C)CC4)c3)c2)c1 [Example 422, N-({5-Chloro-3′-[(4-methyl-1-piperazinyl)methyl]-3-biphenylyl}methyl)-N′-{[1,6-diethyl-4-(tetrahydro-2H-pyran-4-ylamino)-1H-pyrazolo[3,4-b]pyridin-5-yl]methyl}-1,3-benzenedicarboxamide] |
| 119 to 122 | CCc1nc2c(cnn2CC)c(NC2CCOCC2)c1CNC(=O)c1cccc(C(=O)NCc2cc(Cl)cc(-c3cccc(CN4CCNCC4)c3)c2)c1 [Example 424, N-{[5-Chloro-3′-(1-piperazinylmethyl)-3-biphenylyl]methyl}-N′-{[1,6-diethyl-4-(tetrahydro-2H-pyran-4-ylamino)-1H-pyrazolo[3,4-b]pyridin-5-yl]methyl}-1,3-benzenedicarboxamide] |
| 112 to 114 | CCc1nc2c(cnn2CC)c(NC2CCOCC2)c1CNC(=O)c1cccc(C(=O)NCc2cc(Cl)cc(-c3cccc(CN4C[C@@H](C)N[C@@H](C)C4)c3)c2)c1 [Example 429, N-[(5-Chloro-3′-{[(3R,5S)-3,5-dimethyl-1-piperazinyl]methyl}-3-biphenylyl)methyl]-N′-{[1,6-diethyl-4-(tetrahydro-2H-pyran-4-ylamino)-1H-pyrazolo[3,4-b]pyridin-5-yl]methyl}-1,3-benzenedicarboxamide] |
| 121 to 124 | CCc1nc2c(cnn2CC)c(NC2CCOCC2)c1CNC(=O)c1cccc(C(=O)NCc2cc(Cl)cc(-c3cccc(CN4CCCNCC4)c3)c2)c1 [Example 430, N-{[5-Chloro-3′-(hexahydro-1H-1,4-diazepin-1-ylmethyl)-3-biphenylyl]methyl}-N′-{[1,6-diethyl-4-(tetrahydro-2H-pyran-4-ylamino)-1H-pyrazolo[3,4-b]pyridin-5-yl]methyl}-1,3-benzenedicarboxamide] |
| 130 to 133 | CCc1nc2c(cnn2CC)c(NC2CCOCC2)c1CNC(=O)c1cccc(C(=O)NCc2cc(Cl)cc(-c3cccc(CN4C[C@@H]5C[C@H]4CN5)c3)c2)c1 [Example 431, N-({5-Chloro-3′-[(1S,4S)-2,5-diazabicyclo [2.2.1]hept-2-ylmethyl]-3-biphenylyl}methyl)-N′-{[1,6-diethyl-4-(tetrahydro-2H-pyran-4-ylamino)-1H-pyrazolo[3,4-b]pyridin-5-yl]methyl}-1,3-benzenedicarboxamide] |
